Assay results from US8685925B2, “Method and compositions for treating stroke with fever” (Nono Inc., priority 2006, dated 2014).
Where two headings read alike, the source gives them in different places. No end group written: not given here.

What was measured:
[1] = system: Sprague-Dawley rats; assay type: in vivo, rat; settings: pial vessel occlusion study
Method: (§1) The peptides were prepared daily from lyophilized powder by dissolving them in normal saline to the final desired concentration. They were administered intravenously via a slow (4-5 min) injection by individuals blinded to the treatment group.
(§2) Experiments were performed in male adult Sprague-Dawley rats weighing 250-300 g (Charles River Laboratory, Canada). All procedures conformed to guidelines established by the Canadian Council on Animal Care and with the approval of the University Health Network animal care committee. All animals were housed in groups of 1-2 animals in cages with free access to food and water and in rooms having an ambient temperature of 20±1° C. and 12:12 hr light/dark cycle.
Each animal was weighed and then anesthesia was induced. For the permanent pial vessel occlusion model, rats were anesthetized with ketamine (100 mg/kg), acepromazine (2 mg/kg), and xylazine (50 mg/kg), supplemented with one third the initial dose as required. For the two permanent middle cerebral artery occlusion (pMCAO) studies, anesthesia was induced with 3.5% halothane in a mixture of nitrous oxide and oxygen (Vol. 2:1) and maintained with 0.8% halothane in the mixture. […] Mean arterial blood pressure was measured with the use of an indwelling femoral arterial catheter connected to a pressure transducer and was recorded continuously. […]

[2] = system: Sprague-Dawley rats; assay type: in vivo, rat
Method: as §1, §2
(§3) Each animal was weighed and then anesthesia was induced. For the permanent pial vessel occlusion model, rats were anesthetized with ketamine (100 mg/kg), acepromazine (2 mg/kg), and xylazine (50 mg/kg), supplemented with one third the initial dose as required. For the two permanent middle cerebral artery occlusion (pMCAO) studies, anesthesia was induced with 3.5% halothane in a mixture of nitrous oxide and oxygen (Vol. 2:1) and maintained with 0.8% halothane in the mixture. Rats were endotracheally intubated and mechanically ventilated (60 strokes/min, tidal volume of […]). A rectal temperature probe was inserted. Polyethylene catheters (PE-50) were introduced into the left femoral artery and vein for blood pressure recording, blood sampling, and drug injection. Mean arterial blood pressure was measured with the use of an indwelling femoral arterial catheter connected to a pressure transducer and was recorded continuously. Serial measurements were made of arterial blood gases, pH, and blood glucose.
The left middle cerebral artery was occluded by the intraluminal suture method described by Longa (1989). In brief, the left common carotid artery (CCA) was exposed through a midline neck incision and was dissected free from surrounding nerves and fascia, from its bifurcation to the base of the skull. The occipital artery branches of the external carotid artery (ECA) were then isolated, and these branches were dissected and coagulated. The ECA was dissected further distally and coagulated along with the terminal lingual and maxillary artery branches, which were then divided. The internal carotid artery (ICA) was isolated and carefully separated from the adjacent vagus nerve, and the pterygopalatine artery was ligated close to its origin. The tip of a 4-cm length of 3-0 monofilament nylon suture (Harvard Apparatus) was rounded by burning to achieve a tip diameter of 0.33-0.36 mm and tip length of 0.5-0.6 mm and coated with poly-L-lysine (Belayev et al., 1996). The suture was introduced through the CCA and advanced into the ICA and thence into the circle of Willis (about 18-20 mm from the carotid bifurcation), effectively occluding the middle cerebral artery. The silk suture around the CCA was tightened around the intraluminal nylon suture to secure it and permanently occlude the middle cerebral artery. Sham operated animals underwent the identical surgical procedure, including permanent ligation of the CCA, but without suture insertion to occlude the MCA. The pMCAO procedure was considered to be adequate if the animal's neurobehavioral score (below) exceeded 10 at 2 h after pMCAO. Animals were allowed to recover from anesthesia at room temperature.
At 24 h after pMCAO the animals were deeply anaesthetized employing halothane inhalation and the brains were quickly removed, sliced into 8 standard coronal sections, and incubated for 30 min in 2% triphenyltetrazolium chloride (TTC; Sigma, St. Louis, USA) in saline at 37° C. […] Each section was digitally photographed, and the infarcts were then traced onto templates representing the 8 standardized coronal slices. The use of the templates corrects for any brain edema produced by the infarct, allowing for a more accurate determination of infarct volume. […]

[3] = system: Sprague-Dawley rats; experiment: Core temperature after sham procedure with peptide injection; assay type: in vivo, rat; settings: single i.v. injection of 3 nMole/g
Method: A day prior to undergoing ischemia, the animals were implanted with intraperitoneal transmitters (E-Mitter; Mini Mitter/Respironics, Oregon, USA) permitting core temperature (CT) and activity monitoring. Monitoring was performed continuously from 20 hours before, to 24 hours after, the pMCAO (Mini-Mitter VitalView telemetric monitoring software; Mini Mitter/Respironics, Oregon, USA). During the animal surgery the animals were away from the telemetric receivers, so CT was measured with a rectal probe and maintained at 36.5° C. to 37.5° C. using a heating lamp or homeothermic blanket. […] Temporalis muscle temperatures were measured with the same thermocouple probe inserted into the muscle through an 18 gauge needle. Cage temperatures were continuously recorded using an external temperature probe and software (Tektronix WaveStar software; Tektronix, Texas, USA) running on a digital oscilloscope and a separate computer. […]
Previous experience has shown that the neuroprotective effects of some anti-ischemic drugs might have been, at least in part, related to drug-induced hypothermia (e.g., MK-801; Corbett, 1990). […] To determine whether PSD-95 inhibition affected core temperature (CT), it was measured in rats (n=6) implanted with telemetric intra-peritoneal temperature monitors. […]

[4] = system: Sprague-Dawley rats; experiment: Physiological parameters in the pMCAO studies (body weight, MABP, blood gases, pH); assay type: in vivo, rat; settings: for pH: arterial blood; for pH / MABP / pCO2 / pO2: first line, time not given
Method: as §3

[5] = target: PSD-95 (Homo sapiens, UniProt P78352); settings: Kornau, 1995; Aarts, 2002; cited from earlier work
Sequence of PSD-95 (P78352 whole entry, species assumed): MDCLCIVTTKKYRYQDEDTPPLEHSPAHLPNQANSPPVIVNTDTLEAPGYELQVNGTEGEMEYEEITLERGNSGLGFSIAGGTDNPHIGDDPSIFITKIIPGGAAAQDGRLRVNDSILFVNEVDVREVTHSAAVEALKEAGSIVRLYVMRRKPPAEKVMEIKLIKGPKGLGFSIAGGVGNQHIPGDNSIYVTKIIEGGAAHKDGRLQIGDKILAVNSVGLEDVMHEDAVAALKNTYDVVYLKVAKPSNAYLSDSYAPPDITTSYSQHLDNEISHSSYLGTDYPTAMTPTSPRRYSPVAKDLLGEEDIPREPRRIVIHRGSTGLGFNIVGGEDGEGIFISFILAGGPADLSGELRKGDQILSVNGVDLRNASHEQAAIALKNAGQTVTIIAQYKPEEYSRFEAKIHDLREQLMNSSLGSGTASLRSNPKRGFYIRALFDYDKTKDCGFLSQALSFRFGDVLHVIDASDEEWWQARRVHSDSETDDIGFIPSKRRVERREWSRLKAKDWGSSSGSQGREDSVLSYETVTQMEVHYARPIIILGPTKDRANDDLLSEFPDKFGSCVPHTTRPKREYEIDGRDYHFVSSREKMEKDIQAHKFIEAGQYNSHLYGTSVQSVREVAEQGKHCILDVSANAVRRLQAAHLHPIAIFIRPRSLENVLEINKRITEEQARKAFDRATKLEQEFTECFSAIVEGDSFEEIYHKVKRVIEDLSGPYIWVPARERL

Sequence: YGRKKRRQRRRKLSSIESDV [Tat-NR2B9c(SDV)]
- Post-op Deaths ([1]; 0.3 nMole/g): 0
- Post-op Deaths ([1]; 3.0 nMole/g): 0
- Post-op Deaths ([2]; pMCAO study #1, 0.3 nMole/g): 1/1
- Post-op Deaths ([2]; pMCAO study #1, 3.0 nMole/g): 1
- Post-op Deaths ([2]; pMCAO study #2, 0.3 nMole/g): 1/1
- difference in core temperature versus sham (vehicle) animals ([3]; 20 h before until 24 h after): no differences in CT at any time point
- increase in core temperature after termination of anesthesia ([3]; no ischemia, n=6): ~0.5 °C

Sequence: YGRKKRRQRRRKLSSIETDV [Tat-NR2B9c(TDV)]
- Post-op Deaths ([2]; pMCAO study #1, 0.3 nMole/g): 0
- Post-op Deaths ([2]; pMCAO study #1, 3.0 nMole/g): 0
- Post-op Deaths ([2]; pMCAO study #2, 0.3 nMole/g): 2
- Post-op Deaths ([2]; pMCAO study #2, 3.0 nMole/g): 3
- MABP 10 min ([4]; 1st study, 0.3 nmol/g): 121.44 ± 5.23 mmHg
- pCO2 10 min ([4]; 1st study, 0.3 nmol/g): 39.33 ± 0.73 mmHg
- pH 10 min ([4]; 1st study, 0.3 nmol/g): 7.44 ± 0.01
- pO2 10 min ([4]; 1st study, 0.3 nmol/g): 124.22 ± 6.34 mmHg
- MABP 70 min ([4]; 1st study, 0.3 nmol/g): 129.44 ± 6.54 mmHg
- pCO2 70 min ([4]; 1st study, 0.3 nmol/g): 38.67 ± 0.93 mmHg
- pH 70 min ([4]; 1st study, 0.3 nmol/g): 7.41 ± 0.01
- pO2 70 min ([4]; 1st study, 0.3 nmol/g): 137.67 ± 4.75 mmHg
- pH ([4]; 1st study, 0.3 nmol/g): 7.42 ± 0.02
- MABP ([4]; 1st study, 0.3 nmol/g): 126.00 ± 5.54 mmHg
- pCO2 ([4]; 1st study, 0.3 nmol/g): 38.11 ± 0.81 mmHg
- pO2 ([4]; 1st study, 0.3 nmol/g): 131.44 ± 9.11 mmHg
- MABP 10 min ([4]; 1st study, 3 nmol/g): 140.63 ± 7.64 mmHg
- pCO2 10 min ([4]; 1st study, 3 nmol/g): 40.25 ± 0.99 mmHg
- pH 10 min ([4]; 1st study, 3 nmol/g): 7.43 ± 0.01
- pO2 10 min ([4]; 1st study, 3 nmol/g): 136.00 ± 2.57 mmHg
- MABP 70 min ([4]; 1st study, 3 nmol/g): 102.13 ± 2.39 mmHg
- pCO2 70 min ([4]; 1st study, 3 nmol/g): 40.38 ± 0.84 mmHg
- pH 70 min ([4]; 1st study, 3 nmol/g): 7.40 ± 0.01
- pO2 70 min ([4]; 1st study, 3 nmol/g): 132.25 ± 4.65 mmHg
- pH ([4]; 1st study, 3 nmol/g): 7.44 ± 0.01
- MABP ([4]; 1st study, 3 nmol/g): 123.63 ± 6.27 mmHg
- pCO2 ([4]; 1st study, 3 nmol/g): 39.75 ± 0.70 mmHg
- pO2 ([4]; 1st study, 3 nmol/g): 130.63 ± 6.24 mmHg
- MABP 10 min ([4]; 2nd study, 0.3 nmol/g): 140.50 ± 4.69 mmHg
- pCO2 10 min ([4]; 2nd study, 0.3 nmol/g): 42.75 ± 0.59 mmHg
- pH 10 min ([4]; 2nd study, 0.3 nmol/g): 7.38 ± 0.01
- pO2 10 min ([4]; 2nd study, 0.3 nmol/g): 132.00 ± 4.92 mmHg
- MABP 70 min ([4]; 2nd study, 0.3 nmol/g): 129.25 ± 8.09 mmHg
- pCO2 70 min ([4]; 2nd study, 0.3 nmol/g): 41.75 ± 1.13 mmHg
- pH 70 min ([4]; 2nd study, 0.3 nmol/g): 7.41 ± 0.01
- pO2 70 min ([4]; 2nd study, 0.3 nmol/g): 121.00 ± 4.39 mmHg
- pH ([4]; 2nd study, 0.3 nmol/g): 7.38 ± 0.02
- MABP ([4]; 2nd study, 0.3 nmol/g): 119.00 ± 4.11 mmHg
- pCO2 ([4]; 2nd study, 0.3 nmol/g): 39.25 ± 1.06 mmHg
- pO2 ([4]; 2nd study, 0.3 nmol/g): 133.13 ± 5.15 mmHg
- pCO2 10 min ([4]; 2nd study, 3 nmol/g): 37.50 ± 0.80 mmHg
- pH 10 min ([4]; 2nd study, 3 nmol/g): 7.38 ± 0.02
- pO2 10 min ([4]; 2nd study, 3 nmol/g): 120.13 ± 6.53 mmHg
- MABP 70 min ([4]; 2nd study, 3 nmol/g): 130.25 ± 12.26 mmHg
- pCO2 70 min ([4]; 2nd study, 3 nmol/g): 40.88 ± 1.42 mmHg
- pH 70 min ([4]; 2nd study, 3 nmol/g): 7.39 ± 0.02
- pO2 70 min ([4]; 2nd study, 3 nmol/g): 124.63 ± 4.44 mmHg
- pH ([4]; 2nd study, 3 nmol/g): 7.41 ± 0.01
- MABP ([4]; 2nd study, 3 nmol/g): 124.13 ± 6.29 mmHg
- pCO2 ([4]; 2nd study, 3 nmol/g): 38.63 ± 1.05 mmHg
- pO2 ([4]; 2nd study, 3 nmol/g): 141.13 ± 10.44 mmHg

Sequence: KLSSIETDV (PL protein motif) [NR2B9c(TDA)]
- binding to PSD-95 [5]: interacts with the PDZ2 domain of PSD-9S

Sequence: KLSSIEADA [NR2B(ADA), reference compound]
- binding to PSD-95 [5]: incapable of binding PSD-95
